Data on five molecules can be found in patent US8633236B2, “Compounds, compositions and methods” (Cytokinetics, Inc., priority 2002, dated 2014).

Experiment [1] in a line: Potency comparison of separated enantiomers (test not specified). The note with it: (R)- versus (S)-enantiomer separated on Chiralpak AD. Here is the method: An enriched 3:1 R:S mixture of chromenone enantiomers was separated into its pure enantiomers by chiral chromatography with the following conditions: Column—Chiralpak AD, 250×4.6 mm (Diacel Inc.). Sample—22.5 mg/ml in 1:1 i-PrOH:hexanes. Conditions—40 min at isocratic 50% i-PrOH in Hexanes, (S)-enantiomer elutes at 18.35 min, (R)-enantiomer elutes at 26.87 min.

Another experiment concerns A549 cells. Particulars: cited from earlier work.

With `Cc1ccc(C(=O)N(CCCN)[C@@H](c2oc3cc(Cl)ccc3c(=O)c2Cc2ccccc2)C(C)C)cc1` (single isomer, unassigned) [Example 2 (R)-enantiomer], the “relative potency of enantiomers” value in experiment [1] is listed as “significantly more potent than the (S)-enantiomer”. One may read the GI50 as the concentration giving 50% growth inhibition. Consider `O=c1[nH]cc(F)c(=O)[nH]1` [5-fluorouracil], for which, in the experiment with A549 cells, the GI50 was 1000 nM.

Regarding `COc1cccc2c1C(=O)c1c(O)c3c(c(O)c1C2=O)C[C@@](O)(C(=O)CO)C[C@@H]3O[C@H]1C[C@H](N)[C@H](O)[C@H](C)O1` [doxorubicin], the GI50 with A549 cells is 63 nM. As for `NC(=O)NO` [hydroxyurea], the GI50 with A549 cells is 500000 nM.

For the molecule `CC(=O)O[C@H]1C(=O)[C@@]2(C)[C@H]([C@H](OC(=O)c3ccccc3)[C@]3(O)C[C@H](OC(=O)[C@H](O)[C@@H](NC(=O)c4ccccc4)c4ccccc4)C(C)=C1C3(C)C)[C@]1(OC(C)=O)CO[C@@H]1C[C@@H]2O` [paclitaxel], the GI50 in the experiment with A549 cells is 4 nM.
